T1: human steroid 5-α-reductase (Homo sapiens, UniProt P31213)
T1 construct: an aliquot of prostatic particulate solution to a final volume of 0.5 ml of 50 mM sodium citrate, pH 5.0; from tissue; host or cells: hyperplastic human prostate; washed 140,000 x g particulate fraction
T1 sequence (P31213 1-254): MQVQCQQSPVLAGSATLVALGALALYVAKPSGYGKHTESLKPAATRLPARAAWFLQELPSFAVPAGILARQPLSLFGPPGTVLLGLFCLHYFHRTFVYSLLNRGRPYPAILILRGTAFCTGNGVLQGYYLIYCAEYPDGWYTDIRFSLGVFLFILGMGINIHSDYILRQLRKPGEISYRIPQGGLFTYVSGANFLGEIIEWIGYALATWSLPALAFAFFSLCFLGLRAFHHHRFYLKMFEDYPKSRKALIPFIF

B1: human steroid 5-α-reductase (Homo sapiens) (protein)
chain: T1 sequence (P31213 1-254)

One data set concerns the target T1, human steroid 5-α-reductase. In words: Inhibition of human prostatic steroid 5-α-reductase: [14C]-testosterone conversion by prostatic particulate, Dixon plot. The data set is classed as biochemical.
Conditions: not given
The protocol:
The potency of several compounds of the invention was tested for potency in inhibiting human steroid 5-α-reductase using tissue from hyperplastic human prostates. In determining potency in inhibiting the human enzyme, the following procedure was employed:
Frozen human prostates were thawed and minced into small pieces ( 5mm³). The tissue was homogenized in 3 to 5 volumes of 20 mM potassium phosphate, pH 6.5, buffer containing 0.33 M sucrose, 1 mM dithiothreitol, and 50 µM NADPH with a Brinkmann Polytron (Sybron Corporation, Westbury, New York). The solution was subjected to sonication for 3 to 5 minutes with a Sonifier (Branson Sonic Power Co.) followed by hand homogenization in a glass-to-glass Dounce homogenizer (Kontes Glass Company, Vineland, New Jersey).
Prostatic particles were obtained by differential centrifugation at 600 or 1000 x g for 20 minutes and 140,000 x g for 60 minutes at 4°C. The pellet obtained from the 140,000 x g centrifugation was washed with 5 to 10 tissue volumes of the buffer described above and recentrifuged at 140,000 x g. The resulting pellet was suspended in 20 mM potassium phosphate buffer, pH 6.5, containing 20% glycerol, 1 mM dithiothreitol, and 50 µM NADPH. The suspended particulate solution was stored at -80°C.
To each tube was added buffer, 20 µl of 10 mM NADPH and an aliquot of prostatic particulate solution to a final volume of 0.5 ml of 50 mM sodium citrate, pH 5.0. […] The organic layer was removed to a second test tube and evaporated to dryness in vacuo. The residue was dissolved in 20 to 30 µl chloroform, spotted on an individual lane of a 20 x 20 cm prechannelled silica gel TLC plate (Si 250F-PA, Baker Chemical) and developed twice with acetone:chloroform (1:9). The radiochemical content in the bands of the substrate and the products was determined with a BIOSCAN Imaging Scanner (Bioscan, Inc., Washington, D.C.). The percent of recovered radiolabel converted to product was calculated, from which enzyme activity was determined.
The experimentally obtained data was computer fitted to a linear function by plotting the reciprocal of the enzyme activity (1/velocity) against the variable inhibitor concentration (Dixon, M. (1953), Biochem. J., 55, 170).
For the molecule `Cc1cc2c(cc1C(=O)O)CC[C@@H]1[C@@H]2CC[C@]2(C)[C@@H](C(=O)N(C(C)C)C(C)C)CC[C@@H]12` [17β-(N,N-Diisopropylcarboxamide)-2-methyl-estr-1,3,5(10)-triene-3-carboxylic Acid], the Ki amounted to 57 nM.
With `CC(C)N(C(=O)[C@H]1CC[C@H]2[C@@H]3C=Cc4cc(C(=O)O)ccc4[C@H]3CC[C@]12C)C(C)C` [17β-(N,N-Diisopropylcarboxamide)-estr-1,3,5(10),6-tetraene-3-carboxylic Acid], affinity was put at a Ki of 30 nM.
Turning to `CC(C)N(C(=O)C1=CC[C@H]2[C@@H]3CCc4cc(C(=O)O)ccc4[C@H]3CC[C@]12C)C(C)C` [17β-(N,N-Diisopropylcarboxamide)-estr-1,3,5(10),16-tetraene-3-carboxylic Acid], the Ki is 70 nM.
With `CC(C)N(C(=O)[C@H]1CC[C@H]2[C@@H]3CCc4cc(C(=O)O)ccc4[C@H]3CC[C@]12C)C(C)C` [17β-(N,N-Diisopropylcarboxamide)-estr-1,3,5(10)-triene-3-carboxylic Acid], the Ki worked out at 19 nM.
Regarding `CC(C)N(C(=O)[C@H]1CC[C@H]2[C@@H]3CCc4cc(CC(=O)O)ccc4[C@H]3CC[C@]12C)C(C)C` [17β-(N,N-diisopropylcarboxamide)-estr-1,3,5(10)-triene-3-acetic acid], the Ki is 20 nM.
Still for that read-out and setting: then `Cc1c(C(=O)O)ccc2c1CC[C@@H]1[C@@H]2CC[C@]2(C)[C@@H](C(=O)N(C(C)C)C(C)C)CC[C@@H]12` [17β-(N-N-Diisopropylcarboxamide)-4-methyl-estr-1,3,5(10)-triene-3-carboxylic Acid], with 270 nM; and `CC(C)N(C(=O)[C@H]1CC[C@H]2c3ccc4cc(C(=O)O)ccc4c3CC[C@]12C)C(C)C` [17β-(N-N-Diisopropylcarboxamide)-estr-1,3,5(10),-6,8-pentaene-3-carboxylic Acid], with 40 nM.
For the molecule `CC(C)(C)NC(=O)C1=CC[C@H]2[C@@H]3CCc4cc(C(=O)O)ccc4[C@H]3CC[C@]12C` [17β-(N-tert-Butylcarboxamide)-estr-1,3,5(10),-16-tetraene-3-carboxylic Acid], the Ki stood at 60 nM.
Still for that read-out and setting: then `CC(C)(C)NC(=O)[C@H]1CC[C@H]2[C@@H]3CCc4cc(C(=O)O)ccc4[C@H]3CC[C@]12C` [17β-(N-tert-Butylcarboxamide)-estr-1,3,5(10)-triene-3-carboxylic Acid], with 43 nM.

The subject of a further data set is steroid 5-α-reductase. Nature of the data set: In vivo inhibition of steroid 5-α-reductase: DHT levels in rat ventral prostate (HPLC, radioimmunoassay). Set-up: species or system Male Charles River CD rats. The following applies: rats, dose of 20mg/kg, four hours after compound administration, p<.15. The protocol: One of the compounds of the invention, 17β-(N-tert-butylcarboxamide)-estr-1,3,5(10)-triene-3-carboxylic acid, also was tested for its in vivo potency in inhibiting steroid 5-α-reductase activity. Male Charles River CD rats, 48 days old, weighing approximately 200 gm were administered this compound dissolved in propylene glycol and diluted in normal saline. Following compound administration the animals were sacrificed, the ventral prostates were excised, and DHT levels were measured by the following procedure.
Prostate tissue was excised, trimmed, weighed, minced and washed with phosphate buffer. The tissue then was homogenized in phosphate buffer and extracted by addition of ethyl acetate and mixing on an orbital mixer for forty-five minutes. The ethyl acetate was evaporated, the residue was reconstituted in ethanol, and was centrifuge filtered using […] filter paper. The components then were separated using reverse-phase HPLC collecting the DHT fraction. The fraction was reduced to dryness and reconstituted in standard DHT assay buffer available from Amersham. DHT levels then were measured using standard techniques such as radioimmunoassay.
In the compound-treated rats, prostatic DHT levels were decreased forty percent relative to vehicle-treated controls (p<.15) four hours after compound administration at a dose of 20mg/kg.
With `CC(C)(C)NC(=O)[C@H]1CC[C@H]2[C@@H]3CCc4cc(C(=O)O)ccc4[C@H]3CC[C@]12C` [17β-(N-tert-Butylcarboxamide)-estr-1,3,5(10)-triene-3-carboxylic Acid], the “prostatic DHT levels decreased relative to vehicle-treated controls” value is “forty”.

Substrate in a further data set: C[C@]12CC[C@H]3[C@@H](CCC4=CC(=O)CC[C@@]43C)[C@@H]1CC[C@@H]2O
In words: purified protein, by the assay type. The following applies: other: substrate of steroid 5-α-reductase, used in equation 1.
With B1, the Km was 4.5 µM.

A word on the Ki: it is the equilibrium dissociation constant of an inhibitor or competing ligand from its target. A word on the Km: it is the concentration of substrate that gives half-maximal velocity.

These data come from EP0343954B1, “Aromatic steroid 5-alpha-reductase inhibitors” (SMITHKLINE BEECHAM CORPORATION, priority 1988, dated 1989).
